{"source": "patent US5624950A", "about": "“Perhydroisoindole derivatives as substance P antagonists” (Rhone-Poulenc Rorer S.A., priority 1993, dated 1997)", "tested_on": "capillary permeability brought about by septide (substance P agonist)", "test": "inhibition of the increase of capillary permeability brought about by septide", "type": "in vivo", "conditions": "Cavia porcellus, guinea pig, septide-induced capillary permeability", "from_the_text": "The study of certain isoindole derivatives of general formula (I) in the technique of A. Saria et al., Arch."}
{"smiles": "COc1ccccc1[C@H](C)C(=O)N1C[C@H]2C[C@H](C)C[C@](O)(c3ccccc3OC)[C@H]2C1", "note": "(relative stereo) [Example 1, (3aR*,4R*,6S*,7aS*)-4-(2-methoxyphenyl)-2-[2-(S)-(2-methoxyphenyl)propionyl]-6-methyl-4-perhydroisoindolol]", "values": [{"measurement": "ED50", "setting": "iv", "value": 0.07, "unit": "mg/kg"}, {"measurement": "ED50", "setting": "po", "value": "3 to 10", "unit": "mg/kg"}]}
